# Measured values from patent publication US10993957B2 (NuCana plc, priority 2011, dated 2021).
# Like-named read-outs stand apart in the source and are kept apart here.
# Experiments:
# Cem/0 = assay: Cytostatic assay, CEM/0 cells; type: cell-based, human; settings: for IC50: Table 6, read-out: IC50 Cem/0
# Source text: (§1) The cell lines employed were L1210/0 (a leukemia cell line), FM3A/0 (a breast cancer cell line), Cem/0 (an acute lymphoblastic leukemia cell line) and HeLa (a cervical cell line).
# [1] = Stability in buffer at pH 1 by 31P NMR; type: physicochemical; settings: 14 hours
# Protocol: The stability of the prodrug CPF-373 towards hydrolysis at pH=1 was studied using in situ ^31P NMR (202 MHz). The ProTide CPF-373 (1) (2.6 mg) was dissolved in MeOD (0.1 mL) after which 0.5 mL buffer (pH=1) (prepared from equal parts of 0.2 M HCl and 0.2 M KCl) was added. Then the sample was transferred into an NMR tube, and a ^31P NMR experiment was performed at 37° C. recording the data every 12 minutes for 14 hours. Data were processed and analysed with the Bruker Topspin 2.1 program.
# A chemical hydrolysis was evaluated under experimental conditions at pH 1 and pH 8 and monitored by ^31P NMR. During the assay (14 h) under acidic conditions (pH 1) only two peaks representing the two diastereoisomers were recorded.
# L1210/TK^− = assay: Cytostatic assay, thymidine kinase-deficient L1210/TK^− cells; type: cell-based, murine; settings: for IC50: Table 6, read-out: IC50 L1210/TK^−
# HeLa/TK^− = assay: Cytostatic assay, HeLa/TK^− cells; type: cell-based; settings: for IC50: Table 6, read-out: IC50 HeLa/TK^−
# Source text: as §1
# L1210/0 = assay: Cytostatic assay, L1210/0 cells; type: cell-based, murine; settings: for IC50: read-out: IC50 L1210/0
# Source text: as §1
# [2] = target: Thymidine Phosphorylase purified from Escherichia coli (Escherichia coli, UniProt P07650); assay: Phosphorylase assay by in situ 19F NMR; settings: potassium phosphate buffer 300 nM, pH 7.4; after 5 min, 14 h and 72 h
# Protocol: Two potassium phosphate buffers at pH=7.4, 200 nM solution and 300 nM solution respectively, were used as phosphate donor. Units of enzyme were defined as the amount of enzyme required to hydrolyse about 0.25 mg of inosine per min used as standard. Assays were conducted for 30 minutes.
# Cem/hEnt-0 = assay: Cytostatic assay, CEM cells lacking the hEnt1 transporter; type: cell-based; settings: Table 8; read-out: IC50 Cem/hEnt-0
# Source text: (§2) Data are mean (±SD) of at least two to four independent experiments. Table 8 identifies the phosphoramidate motif of compounds embodying the present invention, as discussed above with respect to Table 6, but with “Naph” standing for 1-naphthyl.
# HeLa = assay: Cytostatic assay, HeLa cells; type: cell-based; settings: for IC50: Table 6, read-out: IC50 HeLa
# Source text: as §1
# Cem/hEnt-1 = assay: Cytostatic assay, CEM cells containing the hEnt1 transporter; type: cell-based
# Source text: as §2
# Cem/TK^− = assay: Cytostatic assay, thymidine kinase-deficient CEM/TK^− cells; type: cell-based, human; settings: for IC50: Table 6, read-out: IC50 Cem/TK^−
# L1210.Hyor = assay: Cytostatic assay, Mycoplasma hyorhinis-infected L1210 cells
# Summary of the method: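 Suspension L1210/0 murine leukaemia cells infected with M. hyorhinis, seeded at 60,000 cells/well with test compound in DMEM/10% FBS and grown 48 h at 37 °C, 5% CO2. Cell number counted by Coulter counter; activity also expressed as % retained versus uninfected cells.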
# [3] = Stability in human serum by in situ 31P NMR; type: in vitro ADME; settings: 37° C., after 13 h and 30 min
# Protocol: The stability of the prodrug CPF-373 in the presence of human serum was studied using in situ ^31P NMR (202 MHz). The ProTide CPF-373 (1) (5.0 mg) was dissolved in DMSO (0.05 mL) and D2O (0.15 mL). Then the sample was transferred into an NMR tube, which was inserted in the NMR chamber at 37° C. (with enough solvent to obtain a control NMR reading of the blank). Then 0.3 ml human serum was quickly added to the sample in the NMR tube. NMR experiments were programmed to record data every 15 minutes for 12 hours and 30 minutes. Because of excess noise and poor shimming profiles (most likely due to the biological media and concentration), individual spectra were further processed. After normal Fourier transform processing, each spectrum was deconvoluted (Lorentz-Gauss deconvolution) to reveal solely the frequency and area of spectral peaks without the baseline. Data recorded were processed and analysed with the Bruker Topspin 2.1 program.
# Chemical stability studies on the prodrug CPF-373 (1) have been performed by exposing the compound to human serum and to aqueous buffers (pH 1.0 and 8.0) using in situ ^31P NMR. […]
# The stability of compound CPF 386 in the presence of human serum was investigated using in situ ^31P NMR. A control ^31P NMR data of compound CPF 386 in DMSO and D2O were recorded. […] The ^31P NMR data were recorded every 15 minutes over 14 h. […]
# human UP = human UP (Homo sapiens, UniProt Q16831); assay: Phosphorolysis by human UP, HPLC; settings: 100 μM compound, room temperature, 0-40 min
# Protocol: Reaction mixtures containing 100 μM test compound and recombinant TP or UP (human TP: 8.6 ng/μL; E. coli TP: 3.0 ng/μL; human UP: 4 ng/mL) in a total volume of 500 μL reaction buffer (10 mM TrisHCl; 300 μM NaCl; 1 mM EDTA; 2 mM KH2PO4/K2HPO4) were incubated at room temperature. At different time points (i.e. 0, 20, 40 min) 100 μL aliquots of the reaction mixtures were withdrawn and heated at 95° C. for 3 min to inactivate the enzyme. […] The separation of Urd from uracil was performed by a linear gradient from 100% separation buffer (see above) to 60% separation buffer+40% acetonitrile (3 min 100% separation buffer; 6 min linear gradient of 100% separation buffer to 60% separation buffer+40% acetonitrile; 6 min 60% separation buffer+40% acetonitrile, followed by equilibration at 100% separation buffer).
# Chain of Thymidine Phosphorylase purified from Escherichia coli (P07650 whole entry): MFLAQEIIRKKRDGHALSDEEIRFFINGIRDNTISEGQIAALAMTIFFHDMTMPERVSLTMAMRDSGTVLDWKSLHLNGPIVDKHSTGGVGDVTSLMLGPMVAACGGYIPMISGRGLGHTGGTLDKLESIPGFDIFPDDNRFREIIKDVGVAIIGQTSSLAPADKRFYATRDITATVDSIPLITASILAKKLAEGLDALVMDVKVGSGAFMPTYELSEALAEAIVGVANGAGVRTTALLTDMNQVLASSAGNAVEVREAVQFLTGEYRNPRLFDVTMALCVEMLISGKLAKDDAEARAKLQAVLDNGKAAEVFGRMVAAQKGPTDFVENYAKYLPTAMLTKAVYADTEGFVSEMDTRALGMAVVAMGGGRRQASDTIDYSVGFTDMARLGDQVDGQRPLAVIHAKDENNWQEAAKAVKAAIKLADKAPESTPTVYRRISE
# Chain of human UP (Q16831 whole entry): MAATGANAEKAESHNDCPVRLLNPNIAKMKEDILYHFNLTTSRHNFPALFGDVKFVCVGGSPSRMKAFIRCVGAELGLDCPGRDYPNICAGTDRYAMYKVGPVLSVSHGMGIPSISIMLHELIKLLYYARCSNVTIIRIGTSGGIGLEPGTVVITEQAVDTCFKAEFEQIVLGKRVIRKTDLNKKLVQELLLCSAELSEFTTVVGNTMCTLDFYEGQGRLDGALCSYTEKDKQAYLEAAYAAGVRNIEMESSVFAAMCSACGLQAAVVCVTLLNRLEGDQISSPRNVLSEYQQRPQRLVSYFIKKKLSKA
compound,measurement,setting,value
"C[C@H](NP(=O)(OC[C@H]1O[C@@H](n2cc(F)c(=O)[nH]c2=O)CC1O)Oc1ccccc1)C(=O)OCc1ccccc1 (stereo partly drawn) [CPF 381, 5-Fluoro-2′-deoxyuridine-5′-O-[phenyl(benzoxy-L-alaninyl)]phosphate]",IC50,Cem/0,180 ± 30 nM
same,Stability towards hydrolysis at pH 1,[1],highly stable
same,IC50,L1210/TK^−,13000 ± 8000 nM
same,IC50,HeLa/TK^−,19000 ± 2000 nM
same,CC50,"L1210/0; Table 2, mycoplasma negative cells, read-out: CC50 L1210",26 nM
same,IC50,L1210/0; Table 6,28 ± 7 nM
same,IC50,L1210/0; Table 7,26 ± 8 nM
same,Phosphorolysis by thymidine phosphorylase (19F NMR),[2],did not show any evidence of phosphorolysis
same,IC50,Cem/hEnt-0,1400 ± 650 nM
same,IC50,HeLa,130 ± 10 nM
same,IC50,"Cem/hEnt-1; Table 8, read-out: IC50 Cem/hEnt-1",130 ± 50 nM
same,IC50,"Cem/hEnt-1; in the presence of NBMPR, read-out: IC50 Cem/hEnt-1 + NBMPR",720 nM
same,IC50,"Cem/hEnt-1; in the presence of dipyridamole, read-out: IC50 Cem/hEnt-1 + dipyridamole",660 nM
same,IC50,Cem/TK^−,22000 ± 7000 nM
same,% Retention,L1210.Hyor; CC50 L1210 × 100 ÷ CC50 L1210/Hyor,18%
same,IC50(L1210.Hyor)/IC50(L1210/0),L1210.Hyor; Table 7,5.8
same,CC50,"L1210.Hyor; read-out: CC50 L1210/Hyor, Table 2, mycoplasma positive cells",150 nM
same,IC50,"L1210.Hyor; read-out: IC50 L1210.Hyor, Table 7",150 ± 6 nM
"CCOC(=O)[C@H](C)NP(=O)(OC[C@H]1O[C@@H](n2cc(F)c(=O)[nH]c2=O)CC1O)Oc1cccc2ccccc12 (stereo partly drawn) [CPF 386, 5-Fluoro-2′deoxyuridine-5′-O-[1-naphthyl (ethoxy-L-alaninyl)] phosphate]",CC50,"Cem/0; Homo sapiens, CCRF-CEM, Table 1, read-out: CC50 Cem/0",250 ± 40 nM
same,IC50,"Cem/0; Homo sapiens, CCRF-CEM",250 ± 40 nM
same,CC50,"L1210/TK^−; Mus musculus, L1210, Table 1, read-out: CC50 L1210/TK^−",360 ± 10 nM
same,IC50,"L1210/TK^−; Mus musculus, L1210",360 ± 10 nM
same,CC50,"HeLa/TK^−; Homo sapiens, HeLa, Table 1, read-out: CC50 HeLa/TK^−",2800 nM
same,IC50,"HeLa/TK^−; Homo sapiens, HeLa",2800 nM
same,parent compound in reaction mixture with human serum,[3],96%
same,CC50,"L1210/0; Mus musculus, L1210/0, Table 1, read-out: CC50 L1210/0",31 ± 5 nM
same,IC50,"L1210/0; Mus musculus, L1210/0, Table 6",31 ± 5 nM
same,IC50,"L1210/0; Mus musculus, L1210/0, Table 7",28 ± 2.1 nM
same,CC50,"HeLa; Homo sapiens, HeLa, Table 1, read-out: CC50 HeLa",220 ± 40 nM
same,IC50,"HeLa; Homo sapiens, HeLa",220 ± 40 nM
same,CC50,"Cem/TK^−; Homo sapiens, CEM-TK(-), Table 1, read-out: CC50 Cem/TK^−",1600 ± 200 nM
same,IC50,"Cem/TK^−; Homo sapiens, CEM-TK(-)",1600 ± 200 nM
same,IC50,"L1210.Hyor; Mus musculus, L1210, read-out: IC50 L1210.Hyor",95 ± 2.8 nM
same,IC50(L1210.Hyor)/IC50(L1210/0),L1210.Hyor; Table 7,3.4
"O=c1ccn([C@@H]2O[C@H](CO)[C@@H](O)[C@H]2O)c(=O)[nH]1 [uridine, reference compound]",Phosphorolysis by human UP,human UP,converted to uracil
